# Measured values published in US20180206489A1, “REPELLENT EFFECTIVE AGAINST ANOPHELES GAMBIAE” (Simon Fraser University, priority 2014, published 2018).
# Entries after “also recorded” stand apart in the source; their conditions may differ.
# Key:
# [1] = system: Culex quinquefasciatus; conditions: cited from earlier work
# [2] = system: Anopheles gambiae; test: Electroantennogram (EAG) screening assay on female antennae
# Method: EAG recordings were obtained using a Combi Probe (Syntech, Kirchzarten, Germany) fitted with glass capillary Ag/AgCl electrodes, filled with insect Ringer solution. Fine, tapered capillaries were prepared on a Gravipull-2 capillary puller (Kation Scientific, Minneapolis, USA). Data were recorded with an IDAC-4 data acquisition system (Syntech), interfaced with a computer that had the software EAGpro (version 1.1, Syntech). Stimuli were dissolved in hexane […] and applied to small filter papers (Whatman No. 1) (10 μL). This gave doses on the filter paper of 1 μg, 10 μg and 100 μg. After evaporation of the solvent, the filter papers were placed in a Pasteur pipette. Pipettes were attached to a CS-55 stimulus controller ([…]) that delivered a pulse of air (30 mL/s) through the pipette and into a metal stimulus delivery tube (Ø 0.95 cm×18 cm) that dispensed a continuous airflow (25 mL/s) and was positioned approximately 2 cm from the mosquito antenna so that the airflow contacted the entire antenna. The duration of the pulse was 0.7 s. Screening took place on A. gambiae females 4-7 days post-eclosion. Females were starved (sugar water replaced with distilled water in the colony cage) for 24 hours before trials to ensure a standard hunger level in test subjects. Mosquitoes were prepared for trials in this manner: the head of the mosquito was excised and the base of the head was connected to the ground electrode. The tip of the distal segment of one antenna was cut and inserted it into the recording electrode. Only mosquitoes producing a steady baseline reading were used for trials. All readings were taken within 10 minutes of the time the mosquito was prepared and each female was tested only once with one full chemical series. Trials included human scent emanating from a sock (Tradition brand, nylon) previously conditioned through 30 minutes of vigorous exercise by a volunteer and incubated at 28° C. and 80% RH for 24 hours. […] For trials, the sock was cut into 0.5 cm×3 cm strips and put into the pipette dispensing the odor pulses. Odors in each run were presented to the mosquito in the following order with at least 25 seconds between odor pulses: no odor, no odor, 10 μg DEETTM, 10 μg chemical, no odor, no odor, human scent only, human scent with 1 μg chemical, human scent with 10 μg chemical, human scent with 100 μg chemical, human scent only, no odor, no odor, 10 μg DEETTM. Several of these pulses served as internal controls to ensure that the mosquito antenna was still responding to the stimuli, or the human odor was detectable to the mosquito. One of the pulses, such as air pulse, produced a response, but it is smaller than that of odor or of presented compounds, seven […]. The DEETTM pulses were included as a reference. The pulses of interest were those containing both the human odor and chemical of interest in various concentrations. 9 runs were completed for each chemical tested and recorded the amplitude of the peaks produced for each odor pulse. […] All data were analyzed in R version 2.15.0 (R Development Core Team, 2012). […] EAG activity values were analyzed using a generalized least squares ANOVA with a variance structure that accounts for measurements within runs being more similar than measurements between runs. […] Behavioural assay data was analyzed using a MANOVA with solvent type and chemical (including concentration) as factors. […]
# [3] = system: neurons in the sacculus on the antenna that express an ionotropic receptor (IR40a); conditions: cited from earlier work
# [4] = system: Aedes aegypti; conditions: cited from earlier work
# [5] = system: olfactory receptor neurons on the maxillary palps of A. gambiae; conditions: cited from earlier work
# [6] = system: Anopheles gambiae; test: Behavioural olfactometer assay with human odor source protected by chemical and alternate plant (honey) odor source; assay type: in vivo; conditions: for repelling efficacy, DEET vs 3c{3,6}: 0.1% solution; for total experiment time (time in the proximity of the human odor source) vs unprotected control / probe time (time on the human odor source) vs unprotected control / number of probe attempts at the human odor source vs unprotected control: 1% chemical on mesh over human odor, P<0.05; for total experiment time (time in the proximity of the human odor source) vs unprotected control: FIG. 5A; for probe time (time on the human odor source) vs unprotected control: FIG. 5B; for number of probe attempts at the human odor source vs unprotected control: FIG. 5C
# Method: The olfactometer procedure and materials used in this study are similar to those employed by Zappia and Roitberg (2012) Energy-state dependent responses of Anopheles gambiae (Diptera: Culicidae) to simulated bednet-protected hosts. J. Vector Ecol. 37 (1): 173-8, herein incorporated by reference in its entirety. The behavioral assay was conducted in a custom-made glass olfactometer tube (145 cm long, 17 cm diameter) (FIG. 2). A mosquito release chamber was located on one side of the tube and consisted of a small tube with a gate attached separating the mosquito from the experiment arena. A small sac (10 cm×3 cm in diameter) made of mesh (Onsight equipment insecticide free hiker's mosquito shelter) was positioned 60 cm from the end of the release chamber. The mesh sac was immersed in the treatment compound immediately before trials and allowed to dry before the trial began. The sac contained human odor in the form of a sock (Secret brand, nylon) conditioned through 30 minutes of strenuous exercise and incubated at 28° C. and 80% RH for 24 hours before use. This sock was tested to ensure it was attractive to mosquitoes at the beginning of each trial day (by placing it in a non-experimental colony cage and observing whether females in the cage would seek it out to probe at it) and replaced every 5 days. A breathing tube was also attached to the human odor/chemical complex that allowed a one-way flow of exhaled carbon dioxide into the arena through the sock to make the human odor more attractive to A. gambiae. Carbon dioxide was exhaled into this tube once every 15 seconds during trials. An odor-producing sugar source was located 73 cm from the human odor/chemical complex. This consisted of a cotton ball impregnated with approximately 5 g of honey (Kidd Bros, Alfalfa Clover). The ball was suspended on a metal stage from the top of the olfactometer tube. This gave the mosquito an alternative during trials from seeking the human odor source. At the opposite end of the tube from the release gate was an air source pumping a one-way source of carbon-filtered air into the olfactometer arena flowing from the sugar source to the human odor to the release gate at a rate of 0.025 L/s. The olfactometer was rinsed daily with acetone and water to minimize residual odors. A 2×5 factorial design was used with solvent type and chemical as factors. The solvent types tested were a 1:1 and 1:5 ratio of isopropyl alcohol to water. Two different solvent types were assessed to determine the lowest ratio of alcohol to water that would be effective, since a lower concentration of alcohol is both more cost effective and practical in the field. […] In addition, we tested DEET™ as a positive control compound. Two concentrations of DEET™ and 3c{3,6} (0.1% and 1%) and a control were assessed for each solvent consisting of the solvent without the active ingredient (0% concentration). Female A. gambiae (4-7 days old, not previously blood-fed, and without a visibly swollen abdomen, wing size 2.93 mm-3.49 mm) were starved for 24 hours before assays. All assays were run under dim red light (1.79 μmol photons/(s×m^2)) in the colony chamber 1-5 hours after darkness since this is the period in which blood-seeking behaviour in females is highest. Mosquitoes were allowed to acclimate in the release chamber for 3 minutes before trials began. After 3 minutes, the release gate was opened. […] When the mosquito entered the arena, timing began. During trials, the olfactometer design was such that the mosquito encountered the human odor/chemical first, followed by the sugar odor source. The experiment arena consisted of the area in the olfactometer that was placed in front of the plant odor source, relative to the release point of the mosquito. Trials ended when the mosquito landed anywhere in the arena and rested for 5 minutes or flew to the plant sugar source. […]
SMILES,direct detection of DEET [1],inhibition of neuron response to 1-octen-3-ol [1],enhancement or inhibition of antennal responses to human scent ([2]; compound + human scent),"antennal (olfactory) response to compound by itself ([2]; compound alone, EAG)",stimulation of IR40a-expressing sacculus neurons [3],direct detection of DEET [4],inhibition of neuron response to 1-octen-3-ol [4],inhibition of olfactory receptor neurons (decreased response to 1-octen-3-ol) [5],"repelling efficacy, DEET vs 3c{3,6} [6]",total experiment time (time in the proximity of the human odor source) vs unprotected control [6],probe time (time on the human odor source) vs unprotected control [6],number of probe attempts at the human odor source vs unprotected control [6],"depolarization response of compound by itself ([2]; 100 μg dose, FIG. 6)","air-corrected antennal depolarization, chemical alone (without the human odor) ([2]; FIG. 4, difference not significant (P>0.05))","EAG activity: response to repellent/human odor source combination compared to DEET reference peak ([2]; human scent with 1 μg, 10 μg, 100 μg chemical (pooled), FIG. 3)",behavioural response compared with DEET ([6]; 1% solution),repellent efficacy against A. gambiae (overall conclusion) ([6]; in vivo)
"CCN(CC)C(=O)c1cccc(C)c1 [DEET™, N—N-diethyl-meta-toluamide]",detect DEET™ directly,this inhibition was not detected,did not affect the responses to the human scent,responded; also recorded: elicited olfactory responses by itself,stimulate neurons in the sacculus on the antenna of Drosophila melanogaster,detect DEET™ directly,this inhibition was not detected,inhibits olfactory receptor neurons on the maxillary palps of A. gambiae,"more effective at repelling A. gambiae individuals than a 0.1% solution of 3c{3,6}",spent less time in the proximity of the human odor source,spent less time on the human odor source,attempted to probe less,–,–,–,–,–
"C=CCOc1ccc(OCCC)cc1 [3c{3,6}, 1-allyloxy-4-propoxybenzene]",–,–,–,–,–,–,–,–,a 0.1% solution of DEET™ was more effective,spent less time in the proximity of the human odor source,spent less time on the human odor source,attempted to probe less,one of the largest depolarization responses by itself,larger air-corrected antennal depolarization than the other compounds tested,largest activity of all the compounds tested,comparable response in mosquitoes to a 1% solution of DEET™,effective repellent for A. gambiae; also recorded: effective repellent against A. gambiae
